Laboratory results published in ChEMBL document CHEMBL4742390, “Derivatives of quinolines as inhibitors of dyrk1a and/or dyrk1b kinases” (2019).

Legend:
[1] = molecular target: Dual specificity tyrosine-phosphorylation-regulated kinase 1A (Homo sapiens, UniProt Q13627); assay: Inhibition of N-terminal GST tagged human DYRK1A expressed in Sf21 cells incubated for 30 mins by ADP-Glo assay
[2] = molecular target: Dual specificity tyrosine-phosphorylation-regulated kinase 1B (Homo sapiens, UniProt Q9Y463); assay: Inhibition of N-terminal GST tagged human DYRK1B expressed in Sf21 cells incubated for 60 mins by ADP-Glo assay
Chain of Dual specificity tyrosine-phosphorylation-regulated kinase 1B (Q9Y463 whole entry): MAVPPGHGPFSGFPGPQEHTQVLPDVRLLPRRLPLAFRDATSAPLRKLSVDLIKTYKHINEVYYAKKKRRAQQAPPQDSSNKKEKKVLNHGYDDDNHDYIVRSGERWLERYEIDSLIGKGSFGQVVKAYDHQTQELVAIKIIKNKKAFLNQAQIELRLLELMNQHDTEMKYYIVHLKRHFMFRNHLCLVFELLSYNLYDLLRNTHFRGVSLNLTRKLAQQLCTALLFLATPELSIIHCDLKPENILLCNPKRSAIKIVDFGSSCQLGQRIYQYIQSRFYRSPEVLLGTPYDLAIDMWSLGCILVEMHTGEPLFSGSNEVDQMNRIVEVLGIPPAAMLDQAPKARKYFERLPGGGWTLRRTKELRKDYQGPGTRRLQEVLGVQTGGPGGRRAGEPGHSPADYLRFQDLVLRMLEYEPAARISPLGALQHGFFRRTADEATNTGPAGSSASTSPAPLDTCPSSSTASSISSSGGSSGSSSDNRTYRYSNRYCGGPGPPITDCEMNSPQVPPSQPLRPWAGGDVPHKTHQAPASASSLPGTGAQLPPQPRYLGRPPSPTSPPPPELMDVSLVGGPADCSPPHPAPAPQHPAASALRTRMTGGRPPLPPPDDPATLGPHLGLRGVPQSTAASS

Compound	IC50 [1] [nM]	IC50 ([2]; sf21) [nM]	IC50 [2] [nM]	IC50 ([1]; sf21) [nM]
N[C@H]1CC[C@H](Nc2c([N+](=O)[O-])cnc3ccc(-c4c[nH]c5ncc(C(=O)NCc6cccnc6)cc45)cc23)CC1	–	10	–	10
CNC(=O)c1cnc2[nH]cc(-c3cc(C)c4nccc(-c5cccnc5)c4c3)c2c1	–	–	≥ 100	–
C=CCN(C)C(=O)c1cnc2[nH]cc(-c3cc(OC)c4ncccc4c3)c2c1	≥ 100	–	≥ 100	–
Cc1cc(-c2c[nH]c3ncccc23)cc2cccnc12	–	–	≥ 100	–
COc1cc(-c2c[nH]c3ncccc23)cc2cccnc12	–	–	≥ 100	–
N[C@H]1CC[C@H](Nc2ccnc3ccc(-c4c[nH]c5ncccc45)cc23)CC1	–	–	≥ 100	–
COc1cc(-c2c[nH]c3ncc(C(N)=O)cc23)cc2c(-c3cccnc3)ccnc12	–	–	≥ 100	10
CN1CCC(N(C)c2c([N+](=O)[O-])cnc3ccc(-c4c[nH]c5ncccc45)cc23)CC1	–	10	–	10
N[C@H]1CCN(c2ccnc3ccc(-c4c[nH]c5ncccc45)cc23)C1	–	–	< 10	–
Cc1cc(-c2c[nH]c3ncccc23)cc2c(-c3ccccc3)ccnc12	≥ 100	–	≥ 100	–
c1cncc(-c2ccnc3ccc(-c4c[nH]c5ncccc45)cc23)c1	< 10	–	< 10	–
O=C(NCc1ccccc1)c1cnc2[nH]cc(-c3cc(F)c4ncccc4c3)c2c1	< 10	–	< 10	–
CNC(=O)c1cnc2[nH]cc(-c3ccc4ncc([N+](=O)[O-])c(N5CCC[C@H](N)C5)c4c3)c2c1	< 10	10	–	–
CN1CCC(Nc2c(C#N)cnc3ccc(-c4c[nH]c5ncccc45)cc23)CC1	–	10	–	–
Clc1cc(-c2c[nH]c3ncccc23)cc2cccnc12	< 10	–	< 10	–
Cc1cc(-c2c[nH]c3ncccc23)cc2c(-c3cccnc3)ccnc12	–	10	–	–
Fc1cc(-c2c[nH]c3ncccc23)cc2c(-c3cccnc3)ccnc12	< 10	–	< 10	–
Clc1ccnc2ccc(-c3c[nH]c4ncccc34)cc12	–	10	–	–
c1cnc2ccc(-c3c[nH]c4ncccc34)cc2c1	< 10	–	< 10	–
FC(F)(F)Oc1cc(-c2c[nH]c3ncccc23)cc2cccnc12	–	–	≥ 100	10
N[C@@H]1CCCN(c2ccnc3c(F)cc(-c4c[nH]c5ncc(CNCc6ccccc6)cc45)cc23)C1	< 10	–	< 10	–
C=CC1CN2CCC1CC2[C@H](O)c1ccnc2ccc(-c3c[nH]c4ncccc34)cc12 (some centres not stated)	< 10	–	< 10	–
CNC(=O)c1cnc2[nH]cc(-c3ccc4ncc(N)c(N5CCC[C@H](N)C5)c4c3)c2c1	< 10	–	< 10	–
Fc1cc(-c2c[nH]c3ncc(CNCc4ccccc4)cc23)cc2c(-c3cccnc3)ccnc12	< 10	–	< 10	–
N[C@H]1CC[C@H](Nc2c(NCC3CCOCC3)cnc3ccc(-c4c[nH]c5ncc(C(=O)NCc6cccnc6)cc45)cc23)CC1	< 10	10	–	–
CNC(=O)c1cnc2[nH]cc(-c3cc(F)c4ncccc4c3)c2c1	< 10	–	< 10	–
CNC(=O)c1cnc2[nH]cc(-c3cc(F)c4nccc(N5CCC[C@H](N)C5)c4c3)c2c1	< 10	–	< 10	–
CN1CCC(Nc2ccnc3ccc(-c4c[nH]c5ncccc45)cc23)CC1	–	10	–	–
CNC(=O)c1cnc2[nH]cc(-c3cc(OC)c4ncccc4c3)c2c1	–	–	≥ 100	–
CNC(=O)c1cnc2[nH]cc(-c3cc(F)c4nccc(-c5cccnc5)c4c3)c2c1	< 10	–	< 10	–

Next, values leading:

IC50 [1] [nM]	IC50 ([2]; sf21) [nM]	IC50 [2] [nM]	IC50 ([1]; sf21) [nM]	Compound
< 10	10	–	–	CNC(=O)c1cnc2[nH]cc(-c3ccc4ncc(NCc5cccc(Cl)c5)c(N5CCC[C@H](N)C5)c4c3)c2c1
< 10	–	< 10	–	CNC(=O)c1cnc2[nH]cc(-c3ccc4nccc(N5CCOCC5)c4c3)c2c1
< 10	10	–	–	C=CCN(C)Cc1cnc2[nH]cc(-c3cc(F)c4nccc(-c5cccnc5)c4c3)c2c1
< 10	10	–	–	C=CCN(C)C(=O)c1cnc2[nH]cc(-c3cc(Cl)c4ncccc4c3)c2c1
< 10	–	< 10	–	N[C@@H]1CCCN(c2ccnc3c(F)cc(-c4c[nH]c5ncc(C(=O)NCc6cncnc6)cc45)cc23)C1
< 10	–	< 10	–	CC(=O)N1CCC(Nc2c(N)cnc3ccc(-c4c[nH]c5ncccc45)cc23)CC1
< 10	–	< 10	–	CNC(=O)c1cnc2[nH]cc(-c3cc(F)c4nccc(CCc5ccccc5)c4c3)c2c1
< 10	–	< 10	–	C=CCN(C)C(=O)c1cnc2[nH]cc(-c3cc(F)c4ncccc4c3)c2c1
< 10	–	< 10	–	CC(=O)Nc1cnc2ccc(-c3c[nH]c4ncc(C(=O)NCc5cccnc5)cc34)cc2c1
< 10	10	–	–	CNC(=O)c1cnc2[nH]cc(-c3ccc4ncc(NCc5cccc(Cl)c5)c(N5CCOCC5)c4c3)c2c1
< 10	–	< 10	–	c1ccc(-c2ccnc3ccc(-c4c[nH]c5ncccc45)cc23)cc1
< 10	–	< 10	–	Fc1cc(-c2c[nH]c3ncccc23)cc2cccnc12
< 10	–	< 10	–	c1cnc2[nH]cc(-c3ccc4nccc(-c5ccncc5)c4c3)c2c1
< 10	–	< 10	–	c1cnc2[nH]cc(-c3ccc4ncc(NCc5ccoc5)cc4c3)c2c1
< 10	10	–	–	O=C(NCc1ccccc1)c1cnc2[nH]cc(-c3cc(F)c4nccc(-c5cccnc5)c4c3)c2c1
< 10	–	< 10	–	CNC(=O)c1cnc2[nH]cc(-c3ccc4nccc(-c5cccnc5)c4c3)c2c1
< 10	–	< 10	–	CNC(=O)c1cnc2[nH]cc(-c3cc(F)c4nccc(N5CCC[C@@H](N)C5)c4c3)c2c1
< 10	–	< 10	–	NCCCNC(=O)c1cnc2[nH]cc(-c3cc(Cl)c4ncccc4c3)c2c1

IC50 [1] [nM]	IC50 ([2]; sf21) [nM]	IC50 [2] [nM]	IC50 ([1]; sf21) [nM]	Compound
< 10	–	< 10	–	NCCCNC(=O)c1cnc2[nH]cc(-c3cc(F)c4nccc(-c5cccnc5)c4c3)c2c1
< 10	–	< 10	–	N[C@H]1CCCN(c2ccnc3ccc(-c4c[nH]c5ncccc45)cc23)C1
< 10	–	< 10	–	Nc1cnc2ccc(-c3c[nH]c4ncc(C(=O)NCc5cccnc5)cc34)cc2c1
< 10	–	< 10	–	O=C(NCc1cccnc1)c1cnc2[nH]cc(-c3cc(F)c4nccc(-c5cccnc5)c4c3)c2c1
< 10	–	< 10	–	CNC(=O)c1cnc2[nH]cc(-c3ccc4nccc(Cl)c4c3)c2c1
< 10	10	–	–	C=CCCCc1ccnc2ccc(-c3c[nH]c4ncc(CN(C)CC=C)cc34)cc12
< 10	–	< 10	–	CC(=O)Nc1cnc2[nH]cc(-c3cc(F)c4nccc(-c5cccnc5)c4c3)c2c1
< 10	–	< 10	–	N[C@@H]1CCCN(c2ccnc3c(F)cc(-c4c[nH]c5ncc(C(=O)NCc6cccnc6)cc45)cc23)C1
< 10	–	< 10	–	NC(=O)c1cnc2[nH]cc(-c3cc(F)c4ncccc4c3)c2c1
< 10	10	–	–	C=CCN(C)C(=O)c1cnc2[nH]cc(-c3ccc4nccc(Cl)c4c3)c2c1
< 10	–	< 10	–	CNC(=O)c1cnc2[nH]cc(-c3ccc4ncc(NC(C)=O)c(N5CCOCC5)c4c3)c2c1
< 10	–	< 10	–	O=C(NCc1cccnc1)c1cnc2[nH]cc(-c3ccc4ncc(NCC5CCOCC5)cc4c3)c2c1
< 10	–	< 10	–	CNC(=O)c1cnc2[nH]cc(-c3cc(F)c4nccc(-c5cnccc5C)c4c3)c2c1
< 10	10	–	–	O=C(NCc1ccccc1)c1cnc2[nH]cc(-c3cc(Cl)c4ncccc4c3)c2c1
< 10	–	< 10	–	CNC(=O)c1cnc2[nH]cc(-c3ccc4ncccc4c3)c2c1
< 10	–	< 10	–	NCCCNC(=O)c1cnc2[nH]cc(-c3cc(F)c4ncccc4c3)c2c1
< 10	10	–	–	CNC(=O)c1cnc2[nH]cc(-c3ccc4ncc(NCC5CCOCC5)c(N5CCOCC5)c4c3)c2c1
< 10	10	–	–	C=CCN(C)C(=O)c1cnc2[nH]cc(-c3cc(F)c4nccc(-c5cccnc5)c4c3)c2c1
